Source: US20040265915A1, “Method to identify regulators of cellular activation using Bcl10” (priority 2003, published 2004)

Tests used:
[1] = tested on: microtubules; assay: Microtubule integrity (tubulin distribution) in PMA-stimulated D10 T cells; format: cell-based, murine; settings: 2 hr pretreatment with 10 μg/ml nocodazole, then 10 ng/ml PMA 20 min
Experimental: (§1) To circumvent the problem that many cytoskeletal inhibitors also impair T cell/APC conjugate formation, D10 T cells were activated with phorbol ester (PMA), a stimulator of PKC. Specifically, in these experiments, D10 T cells infected with retroviruses encoding PKCθ-CFP and Bcl10-YFP received no pre-treatment, 2 hr pretreatment with 10 μg/ml nocodazole, or 1 hr pretreatment with 2 μg/ml latrunculin A. Cells then received either no treatment or were incubated for 20 min with 10 ng/ml PMA.

[2] = tested on: Bcl10-YFP POLKADOTS formation; assay: Bcl10-YFP POLKADOTS formation in antigen-stimulated D10 T cells, fluorescence microscopy; format: cell-based, murine; settings: bisindo 2 μM, stauro 100 nM; for Bcl10-YFP POLKADOTS formation: D10 T cells expressing Bcl10-YFP, conalbumin-loaded CH12 B cells (100 μg/ml), 30 min pre-treatment, fixed after 20 min, FIG. 4; for Bcl10 POLKADOTS formation: D10 T cells expressing PKCθ-CFP and Bcl10-YFP, CH12 B cells with 250 μg/ml conalbumin, 30 min pretreatment, fixed after 30 min, FIG. 5
Experimental: (§2) D10-IL2 (henceforth referred to as D10) is an IL-2 dependent subclone of the CD4^+ T cell clone D10 (16), maintained as described (17). Primary T cell blasts were prepared by stimulation of spleen and lymph node cells with 100 μg/ml plate-bound anti-TCRP for 48 hr, with IL-2 added for the final 24 hr of stimulation. CH12H-2^k B cells and CHb H-2^b B cells (18) were maintained as described previously (17).
(§3) Murine PKCθ was fused to a C-terminal linker (GRVELGR; SEQ ID NO:7) followed by GFP or CFP (19), modified by mutations that improve folding at 37° C. (20). Two I.M.A.G.E. expressed sequence tag (EST) clones encoding murine Bcl10 were purchased (2123397 and 3026026; ResGen). Clone 3026026 was used for PCR amplification of Bc 10, adding the C-terminal linker GR, which was then fused to the previously described modified YFP gene (17). The PKCθ-CFP and Bcl10-YFP gene fusions were cloned into the retroviral vectors pEneo and pEhyg (21), respectively. Retroviral infection and cell line production were as described (17).
Fluorescent and Nomarski images were acquired on an Olympus IX70 inverted microscope (Olympus America, Inc.) or a Zeiss Axiovert 200M inverted microscope (Carl Zeiss, Inc.) using a 100× plan-apochromat oil objective. The microscope was controlled by a TILLvisTRAC imaging system, driven by TILLvisION 4.0 software (TILL Photonics, GmbH). Excitation light was provided by a Polychrome IV monochromator (TILL Photonics, GmbH). Dichroic mirrors and excitation filters appropriate for each fluorophore were purchased from Chroma.
For fixed cell imaging, T cell conjugates were formed, mounted on coverslips, paraformaldehyde fixed, and stained with fluorophore-conjugated antibodies (Molecular Probes, Inc.) as described previously (16). For each fluorescent wavelength, z-stacks of 50 xy-planes separated by 0.3 μm were acquired, and stacks were digitally deconvolved using a constrained-iterative algorithm. TILLvisION software was used to convert z-stacks into xy projection images, by retaining only the maximal pixel value for each xy coordinate across the z-dimension.
The inventors next examined whether formation of Bcl10 POLKADOTS is PKC-dependent (FIG. 4 and FIG. 5). D10 T cells expressing Bcl10-YFP were incubated with CH12 B cells with no antigen, or with conalbumin-loaded CH12 B cells (100 μg/ml conalbumin). […] Cells were fixed after 20 minutes and examined by fluorescence microscopy. For each group, >200 T cells were counted, and percentages with and without POLKADOTS were determined.
(§4) CH12 B cells that had been pre-incubated with no antigen or with 250 μg/ml conalbumin protein were then added. Cells were fixed after 30 min and examined by fluorescence microscopy. […]

[3] = tested on: Bcl10-YFP phosphorylation; assay: Western blot of TCR-dependent Bcl10-YFP phosphorylation in D10 T cells; format: cell-based, murine; settings: anti-TCR stimulation, 30 min pre-treatment with 2 μM, data not shown
Experimental: (§5) T cells were stimulated with 100 μg/ml plate-bound anti-TCRP. Cell lysates were prepared on ice using 1× Laemmli buffer, followed by sonication. For immunoprecipitations, 5×10^6 cells were lysed for 1 hr on ice in 360 μL of a buffer consisting of 0.5% NP40, 0.5% deoxcholate, 20 mM Tris, pH 7.6, 250 mM NaCl, 3 mM EDTA, 3 mM EGTA, 1 mM PMSF, 20 μg/ml aprotinin, 100 μg/ml leupeptin, 1 mM Na3VO4, 10 mM NaF, and 1 mM DTT. Nuclei were removed by centrifugation, and lysates were incubated with polyclonal rabbit anti-Bcl10 antibody (Santa Cruz Biotechnology) for 2-3 hr at 4° C. and then for 1 hr at 4° C. with Protein A sepharose. Lysates and immunoprecipitates were separated by SDS-PAGE and blotted onto nitrocellulose. Proteins were detected by monoclonal antibodies against Bcl10 (Santa Cruz Biotechnology), and PKCθ (BD/Translabs), and polyclonal antibodies against phospho-IκBα anti-phospho-PKCθ/Thr538 (Cell Signaling Technologies), and actin (Santa Cruz Biotechnology). For phosphatase treatment, immunoprecipitates were incubated for 45 min at 30° C. with 400 U of λ-phosphatase (New England Biolabs), according to the instructions of the manufacturer.
The inventors next investigated whether Bcl10 redistribution reflects biochemical modification of Bcl10. […]

[4] = tested on: NF-κB activation (phosphorylation of IκBα); assay: NF-κB activation assessed by phosphorylation of IκBα in anti-TCR stimulated D10 T cells; format: cell-based, murine; settings: anti-TCR stimulation, 30 min pre-treatment with 2 μM, data not shown
Experimental: as §5, with “manufacturer. […]” for “manufacturer.”

[5] = tested on: ERK MAP kinases; assay: Activation of ERK MAP kinases in anti-TCR stimulated D10 T cells; format: cell-based, murine; settings: anti-TCR stimulation, 30 min pre-treatment with 2 μM
[6] = biological target: T1, PKCθ-CFP (Mus musculus, UniProt Q02111); assay: PKCθ-CFP translocation in D10 T cells, fluorescence microscopy; format: cell-based, murine
T1 construct: expressed in transfected cells; host or cells: D10 murine CD4+ T cell clone, infected with pEneo retrovirus
Experimental: as §3, §1, §4

[7] = tested on: Bcl10-YFP POLKADOTS formation; assay: Bcl10-YFP POLKADOTS formation in PMA-stimulated D10 T cells with cytoskeletal inhibitors; format: cell-based, murine; settings: data not shown
Experimental: as §1

[8] = tested on: Bcl10; assay: Endogenous Bcl10 enrichment at the T cell/APC interface in OTII T cell blasts, immunofluorescence microscopy; format: cell-based, mice; settings: 45 min with CHb APC loaded with 10 μg/ml OVA 323-339, FIG. 1B
Experimental: as §2
For fixed cell imaging, T cell conjugates were formed, mounted on coverslips, paraformaldehyde fixed, and stained with fluorophore-conjugated antibodies (Molecular Probes, Inc.) as described previously (16). […]
The inventors sought to establish whether Bcl10, like PKCθ, might be recruited to the c-SMAC in response to specific antigen-loaded APC. […] T cell/APC conjugates were detected by immunofluorescence microscopy, using monoclonal antibodies directed against Bcl10, PKCθ and CD4 (FIG. 1A). […]
In contrast, in T cells stimulated by specific antigen-loaded CHb APC, PKCθ became enriched at the region of contact between the T cell and the APC. […] The mean maximal anti-Bcl10 fluorescence intensity of the enriched regions of the antigen-stimulated T cells was 7-fold higher than the maximal T cell anti-Bcl10 fluorescence of the no antigen controls (FIG. 1B; error bars representing SEM).

T1 sequence (Q02111 whole entry): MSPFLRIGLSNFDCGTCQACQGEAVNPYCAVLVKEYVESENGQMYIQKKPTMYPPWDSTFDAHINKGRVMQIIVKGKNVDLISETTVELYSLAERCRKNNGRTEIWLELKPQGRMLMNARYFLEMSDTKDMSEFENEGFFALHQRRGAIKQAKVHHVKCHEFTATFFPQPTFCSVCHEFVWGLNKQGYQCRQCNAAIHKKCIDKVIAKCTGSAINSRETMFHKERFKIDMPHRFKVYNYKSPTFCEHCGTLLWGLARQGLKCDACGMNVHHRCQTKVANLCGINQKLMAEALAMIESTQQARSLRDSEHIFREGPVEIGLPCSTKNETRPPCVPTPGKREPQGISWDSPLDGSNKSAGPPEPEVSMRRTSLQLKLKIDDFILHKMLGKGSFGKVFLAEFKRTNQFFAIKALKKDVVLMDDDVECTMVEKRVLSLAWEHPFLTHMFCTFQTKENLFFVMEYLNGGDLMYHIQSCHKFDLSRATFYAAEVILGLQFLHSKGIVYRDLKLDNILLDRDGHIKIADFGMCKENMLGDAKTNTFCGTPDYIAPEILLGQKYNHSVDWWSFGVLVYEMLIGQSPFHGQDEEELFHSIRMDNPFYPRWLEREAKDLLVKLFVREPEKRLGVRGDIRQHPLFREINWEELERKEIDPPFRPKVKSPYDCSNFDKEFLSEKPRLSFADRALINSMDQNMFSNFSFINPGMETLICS

With `COC(=O)Nc1nc2ccc(C(=O)c3cccs3)cc2[nH]1` [nocodazole] the “microtubules (distribution of tubulin)” value [1] was “disrupted”.
bisindolylmaleimide was tested, and the “Bcl10-YFP POLKADOTS formation” value [2] was “blocked”, the “Bcl10 POLKADOTS formation” value [2] was “blocked” and the “formation of phosphorylated Bcl10-YFP” value [3] was “completely blocked”. The “activation of NF-κB (phosphorylation of IκBα)” value [4] was “blocked”, the “activation of the ERK MAP kinases” value [5] was “partially inhibited” and the “PKCθ translocation in presence of PKC inhibitors” value ([6]; CH12 B cells with 250 μg/ml conalbumin, 30 min pretreatment, bisindo 2 μM, stauro 100 nM, FIG. 5) was “occurs”.
`C/C1=C/C(=O)O[C@@H]2C[C@@H](CC[C@H](C)/C=C\C=C\CC1)O[C@@](O)([C@@H]1CSC(=O)N1)C2` [latrunculin A] was tested, and the “levels of Bcl10-YFP POLKADOTS after cytoskeletal inhibitor pretreatment” value ([7]; 1 hr pretreatment with 2 μg/ml latrunculin A, then 10 ng/ml PMA 20 min) was “did not appear to have reduced levels”.
With `CN[C@@H]1C[C@H]2O[C@@](C)([C@@H]1OC)n1c3ccccc3c3c4c(c5c6ccccc6n2c5c31)C(=O)NC4` [stauro, staurosporine] the “Bcl10-YFP POLKADOTS formation” value [2] was “blocked” and the “Bcl10 POLKADOTS formation” value [2] was “blocked”.
In the case of `CCCCCCCCCCCCCC(=O)O[C@@H]1[C@@H](C)[C@@]2(O)[C@@H](C=C(CO)C[C@]3(O)C(=O)C(C)=C[C@@H]23)[C@@H]2C(C)(C)[C@]12OC(C)=O` [PMA], the “Bcl10-YFP POLKADOTS on PMA stimulation” value ([7]; D10 T cells expressing PKCθ-CFP and Bcl10-YFP, 10 ng/ml PMA for 20 min) is reported as “formation of Bcl10-YFP POLKADOTS” and the “PKCθ-CFP translocation on PMA stimulation” value ([6]; 10 ng/ml PMA for 20 min, data not shown) is reported as “translocation of PKCθ-CFP to the cell membrane”.
With “ovalbumin: ovalbumin peptide OVA 323-339 bound to IA^b, antigen for OTII T cells (KISQAVHAAHAEINEAG; UniProt P01012 323-339, looked up, fragment)” the “mean maximal anti-Bcl10 fluorescence intensity of enriched regions relative to no antigen controls” value [8] was 7 fold.
